# Reference: PubChem BioAssay AID330 (DTP/NCI, 2004)
# Where “and” joins values, the source holds several entries; their conditions need not be identical. Identical values can stand only once. Inconclusive results and toxic doses are left out.
# System: P388 leukemia ip, CD2F1 mice, survival T/C
# Assay: NCI In Vivo Anticancer Drug Screen. Data for tumor model P388 Leukemia (intraperitoneal) in CD2F1 (CDF1) mice
# Conditions: endpoint: median survival time, higher = longer survival
# How it was run: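 Mice carrying the transplanted tumor received test compound or vehicle. Survival was recorded in each group, and the value is the treated-group measurement divided by that of the vehicle-treated control group.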
# [1] = dose: 50.0 mg/kg/injection, schedule: Q01DX005 (ip), vehicle: saline with Tween-80
# [2] = dose: 100.0 mg/kg/injection, schedule: Q01DX005 (ip), vehicle: saline with Tween-80
# [3] = dose: 60.0 mg/kg/injection, schedule: Q01DX005 (ip), vehicle: saline with Tween-80
# [4] = dose: 120.0 mg/kg/injection, schedule: Q01DX005 (ip), vehicle: saline with Tween-80
# [5] = dose: 240.0 mg/kg/injection, schedule: Q01DX005 (ip), vehicle: saline with Tween-80
# [6] = dose: 60.0 mg/kg/injection, schedule: Q01DX005 (ip), vehicle: Klucel (hydroxypropylcellulose) (HPC)
# [7] = dose: 120.0 mg/kg/injection, schedule: Q01DX005 (ip), vehicle: Klucel (hydroxypropylcellulose) (HPC)
# [8] = dose: 240.0 mg/kg/injection, schedule: Q01DX005 (ip), vehicle: Klucel (hydroxypropylcellulose) (HPC)
# [9] = dose: 100.0 mg/kg/injection, schedule: Q04DX003 (ip), vehicle: saline
# [10] = dose: 200.0 mg/kg/injection, schedule: Q04DX003 (ip), vehicle: saline
# [11] = dose: 50.0 mg/kg/injection, schedule: Q01DX009 (ip), vehicle: saline with Tween-80
# [12] = dose: 100.0 mg/kg/injection, schedule: Q01DX009 (ip), vehicle: saline with Tween-80
# [13] = dose: 200.0 mg/kg/injection, schedule: Q01DX009 (ip), vehicle: saline with Tween-80
# [14] = dose: 50.0 mg/kg/injection, schedule: Q01DX005 (ip), vehicle: Klucel (hydroxypropylcellulose) (HPC)
# [15] = dose: 100.0 mg/kg/injection, schedule: Q01DX005 (ip), vehicle: Klucel (hydroxypropylcellulose) (HPC)
# [16] = dose: 200.0 mg/kg/injection, schedule: Q01DX005 (ip), vehicle: Klucel (hydroxypropylcellulose) (HPC)
structure (smiles),measurement,setting,value
N#CC=Cc1ccc([N+](=O)[O-])s1 (mixture of isomers),T/C,"dose: 12.5 mg/kg/injection, schedule: Q01DX005 (ip), vehicle: saline with Tween-80",109 % of control
same,T/C,"dose: 25.0 mg/kg/injection, schedule: Q01DX005 (ip), vehicle: saline with Tween-80",115 % of control
O=C1c2ccccc2C(=O)c2c(I)cccc21,T/C,[1],97 % of control
same,T/C,[2],97 % of control
O=C1c2ccc([N+](=O)[O-])cc2C(=O)N1CC[P+](c1ccccc1)(c1ccccc1)c1ccccc1,T/C,"dose: 0.78 mg/kg/injection, schedule: Q01DX009 (ip), vehicle: water",100 % of control
same,T/C,"dose: 1.56 mg/kg/injection, schedule: Q01DX009 (ip), vehicle: water",100 % of control
same,T/C,"dose: 3.13 mg/kg/injection, schedule: Q01DX009 (ip), vehicle: water",103 % of control
same,T/C,"dose: 6.25 mg/kg/injection, schedule: Q01DX009 (ip), vehicle: water",98 % of control
same,T/C,"dose: 12.5 mg/kg/injection, schedule: Q01DX009 (ip), vehicle: water",98 % of control
same,T/C,"dose: 25.0 mg/kg/injection, schedule: Q01DX009 (ip), vehicle: water",106 % of control and 107 % of control
O=C(Oc1ccc2c(=O)cc(-c3ccccc3)oc2c1OC(=O)c1ccccc1)c1ccccc1,T/C,[3],94 % of control
same,T/C,[4],93 % of control
same,T/C,[5],90 % of control
CCCCCCCCCCCC(=O)c1c(O)c2ccccc2oc1=O,T/C,[1],95 % of control
same,T/C,[2],94 % of control
O=N[O-].O=N[O-].[Co].[NH-]CC[NH-].[NH-]CC[NH-],T/C,"dose: 6.25 mg/kg/injection, schedule: Q04DX003 (ip), vehicle: water",98 % of control
same,T/C,"dose: 12.5 mg/kg/injection, schedule: Q04DX003 (ip), vehicle: distilled water + Tween-80",96 % of control
same,T/C,"dose: 12.5 mg/kg/injection, schedule: Q04DX003 (ip), vehicle: water",101 % of control
same,T/C,"dose: 25.0 mg/kg/injection, schedule: Q04DX003 (ip), vehicle: water",102 % of control
same,T/C,"dose: 50.0 mg/kg/injection, schedule: Q04DX003 (ip), vehicle: distilled water + Tween-80",99 % of control
same,T/C,"dose: 50.0 mg/kg/injection, schedule: Q04DX003 (ip), vehicle: water",96 % of control
same,T/C,"dose: 100.0 mg/kg/injection, schedule: Q04DX003 (ip), vehicle: distilled water + Tween-80",108 % of control
O=C1C2CCCN2C(=O)N1c1ccccc1 (configuration not stated),T/C,[6],105 % of control
same,T/C,[7],97 % of control
same,T/C,[8],96 % of control
COC(=O)C12c3ccccc3C3C(c4ccccc41)C32 (configuration not stated),T/C,[9],102 % of control
same,T/C,[10],96 % of control
O=c1[nH]cnc2c1nnn2C1OC(CO)C(O)C1O (configuration not stated),T/C,"dose: 25.0 mg/kg/injection, schedule: Q01DX005 (ip), vehicle: saline",102 % of control and 105 % of control
same,T/C,"dose: 50.0 mg/kg/injection, schedule: Q01DX005 (ip), vehicle: saline",107 % of control and 111 % of control
same,T/C,"dose: 100.0 mg/kg/injection, schedule: Q01DX005 (ip), vehicle: saline",114 % of control and 118 % of control
same,T/C,"dose: 200.0 mg/kg/injection, schedule: Q01DX005 (ip), vehicle: saline",111 % of control and 116 % of control
same,T/C,"dose: 400.0 mg/kg/injection, schedule: Q01DX005 (ip), vehicle: saline",100 % of control
CCCCCCC(=O)/C=C/c1ccc(OC)c(OC)c1,T/C,[11],107 % of control
same,T/C,[12],114 % of control
same,T/C,[13],115 % of control
CCCCCCCC/C=C\CCCCCCCC(=O)OCC(COC(=O)CCCCCCC/C=C\CCCCCCCC)OC(=O)N(CCCl)CCCl,T/C,"dose: 30.0 mg/kg/injection, schedule: Q01DX005 (ip), vehicle: saline with Tween-80",118 % of control
same,T/C,[3],115 % of control
same,T/C,[4],174 % of control
same,T/C,[5],205 % of control and 259 % of control
O=c1[nH]c2cc([N+](=O)[O-])ccc2nc1/C=C(\O)c1ccc(F)cc1,T/C,"dose: 60.0 mg/kg/injection, schedule: Q01DX005 (ip), vehicle: Klucel + Tween-80",102 % of control
same,T/C,"dose: 120.0 mg/kg/injection, schedule: Q01DX005 (ip), vehicle: Klucel + Tween-80",86 % of control
COc1c2occc2c(CCl)c2ccc(=O)oc12,T/C,"dose: 15.0 mg/kg/injection, schedule: Q01DX005 (ip), vehicle: Klucel (hydroxypropylcellulose) (HPC)",115 % of control
same,T/C,"dose: 30.0 mg/kg/injection, schedule: Q01DX005 (ip), vehicle: Klucel (hydroxypropylcellulose) (HPC)",111 % of control
same,T/C,[6],111 % of control and 116 % of control
Cc1ccc(S(=O)(=O)N2CCC(N)=N2)cc1,T/C,[14],93 % of control
same,T/C,[15],98 % of control
same,T/C,[16],90 % of control
Cc1ccc(S(=O)(=O)OCC2(COCc3ccccc3)CCCCC2=O)cc1 (configuration not stated),T/C,"dose: 50.0 mg/kg/injection, schedule: Q01DX009 (ip), vehicle: Klucel (hydroxypropylcellulose) (HPC)",106 % of control
same,T/C,"dose: 100.0 mg/kg/injection, schedule: Q01DX009 (ip), vehicle: Klucel (hydroxypropylcellulose) (HPC)",92 % of control
same,T/C,"dose: 200.0 mg/kg/injection, schedule: Q01DX009 (ip), vehicle: Klucel (hydroxypropylcellulose) (HPC)",95 % of control
OC1=CC(=S)NC2CCCCC12 (configuration not stated),T/C,[14],86 % of control
same,T/C,[15],102 % of control
same,T/C,[16],102 % of control
CN(C)C1CS(=O)(=O)OC2=C1CCc1c2ccn1C (configuration not stated),T/C,[6],96 % of control
same,T/C,[7],98 % of control
same,T/C,[8],96 % of control
O=c1c2cncnc2sc2nccn12,T/C,[3],99 % of control
same,T/C,[4],98 % of control
same,T/C,[5],95 % of control
O=c1[nH]c(Cl)nc2nc(Cl)[nH]c12,T/C,[14],100 % of control
same,T/C,[15],101 % of control
same,T/C,[16],100 % of control
Brc1cc2c(cc1CC1NCCc3cc4c(cc31)OCO4)OCO2 (configuration not stated),T/C,"dose: 50.0 mg/kg/injection, schedule: Q01DX001 (ip), vehicle: saline + alcohol",97 % of control
same,T/C,"dose: 100.0 mg/kg/injection, schedule: Q01DX001 (ip), vehicle: saline + alcohol",100 % of control
same,T/C,"dose: 200.0 mg/kg/injection, schedule: Q01DX001 (ip), vehicle: saline + alcohol",103 % of control
Cc1cc2nc3ccc(N=Nc4ccc(N(C)C)cc4)cc3n(-c3ccccc3)c-2cc1=N,T/C,"dose: 0.39 mg/kg/injection, schedule: Q01DX009 (ip), vehicle: saline",113 % of control and 118 % of control
same,T/C,"dose: 0.78 mg/kg/injection, schedule: Q01DX009 (ip), vehicle: saline",119 % of control
CCC(c1ccc(OCCS(=O)(=O)Oc2ccccc2)cc1)C(CC)c1ccc(OCCS(=O)(=O)Oc2ccccc2)cc1 (configuration not stated),T/C,"dose: 100.0 mg/kg/injection, schedule: Q04DX003 (ip), vehicle: suspension in saline",99 % of control
same,T/C,"dose: 200.0 mg/kg/injection, schedule: Q04DX003 (ip), vehicle: suspension in saline",98 % of control
same,T/C,"dose: 400.0 mg/kg/injection, schedule: Q04DX003 (ip), vehicle: suspension in saline",98 % of control
C=Cc1c2[n-]c(c1C)/C=c1\[n-]/c(c(C)c1C=C)=C\c1[n-]c(c(CCC(=O)O)c1C)/C=c1\[n-]/c(c(C)c1CCC(=O)O)=C\2.[Pt+4],T/C,"dose: 50.0 mg/kg/injection, schedule: Q04DX002 (ip), vehicle: saline",89 % of control
same,T/C,"dose: 100.0 mg/kg/injection, schedule: Q04DX002 (ip), vehicle: saline",100 % of control
same,T/C,"dose: 200.0 mg/kg/injection, schedule: Q04DX002 (ip), vehicle: saline",97 % of control
C=C(c1ccccc1)c1ccccc1-c1ccccc1C(=C)c1ccccc1,T/C,[9],99 % of control
same,T/C,[10],100 % of control
same,T/C,"dose: 400.0 mg/kg/injection, schedule: Q04DX003 (ip), vehicle: saline",98 % of control
O=C(O)COc1ccccc1P(=O)(c1ccccc1)c1ccccc1,T/C,[14],101 % of control
same,T/C,[15],102 % of control
same,T/C,[16],103 % of control
NC(Cc1ccccc1[N+](=O)[O-])C(=O)O (configuration not stated),T/C,[11],92 % of control
same,T/C,[12],93 % of control
same,T/C,[13],91 % of control
O=NN1CC23C=CCCC2(CCCC3)C1 (configuration not stated),T/C,"dose: 100.0 mg/kg/injection, schedule: Q04DX003 (ip), vehicle: Klucel (hydroxypropylcellulose) (HPC)",113 % of control
same,T/C,"dose: 200.0 mg/kg/injection, schedule: Q04DX003 (ip), vehicle: Klucel (hydroxypropylcellulose) (HPC)",114 % of control
same,T/C,"dose: 400.0 mg/kg/injection, schedule: Q04DX003 (ip), vehicle: Klucel (hydroxypropylcellulose) (HPC)",104 % of control
CCCCC(CC)OC(=O)c1cccc(C(=O)O)c1 (configuration not stated),T/C,"dose: 100.0 mg/kg/injection, schedule: Q01DX001 (ip), vehicle: saline with Tween-80",115 % of control
same,T/C,"dose: 200.0 mg/kg/injection, schedule: Q01DX001 (ip), vehicle: saline with Tween-80",97 % of control
